Test results published in ChEMBL document CHEMBL1133283, “Arylsulfonyl-N,N-diethyl-dithiocarbamates: a novel class of antitumor agents” (Bioorg Med Chem Lett, 2000).

Tests used:
Type in all cases: functional
Details in all cases: Homo sapiens
A549 = test: In vitro growth inhibition of compound was determined against A549/ATCC cell lines of non-small cell lung cancer
786-0 = test: In vitro growth inhibition of compound was determined against […] cell lines of Renal cancer
BT-549 = test: In vitro growth inhibition of compound was determined against BT-549 cell lines of Breast cancer
COLO 205 = test: In vitro growth inhibition of compound was determined against COLO-205 cell lines of colon cancer
CCRF-CEM = test: In vitro growth inhibition of compound was determined against CCRF-CEM cell lines of Leukemia
CAKI-1 = test: In vitro growth inhibition of compound was determined against CAKI-1 cell lines of Renal cancer
DU-145 = test: In vitro growth inhibition of compound was determined against DU-145 cell lines of Prostate cancer
HCT-15 = test: In vitro growth inhibition of compound was determined against HCT-15 cell lines of colon cancer
HOP-92 = test: In vitro growth inhibition of compound was determined against HOP-92 cell lines of non-small cell lung cancer
HL-60 = test: In vitro growth inhibition of compound was determined against HL-60(TB) cell lines of Leukemia
HCT-116 = test: In vitro growth inhibition of compound was determined against HCT116 cell lines of colon cancer
HCC 2998 = test: In vitro growth inhibition of compound was determined against HCC2998 cell lines of colon cancer
Hs-578T = test: In vitro growth inhibition of compound was determined against Hs 578.T cell lines of Breast cancer
IGROV-1 = test: In vitro growth inhibition of compound was determined against IGROVI cell lines of Ovarian cancer
K562 = test: In vitro growth inhibition of compound was determined against K-562 cell lines of Leukemia
KM12 = test: In vitro growth inhibition of compound was determined against KM12 cell lines of colon cancer
MOLT-4 = test: In vitro growth inhibition of compound was determined against MOLT-4 cell lines of Leukemia
LOX IMVI = test: In vitro growth inhibition of compound was determined against LOX IMVI cell lines of Melanoma
MDA-MB-435 = test: In vitro growth inhibition of compound was determined against MDA-MB-435 cell lines of Breast cancer
MDA-MB-231 = test: In vitro growth inhibition of compound was determined against MDA-MB-231/ATCC cell lines of Breast cancer
MDA-N = test: In vitro growth inhibition of compound was determined against MDA-Ncell lines of Breast cancer
M14 = test: In vitro growth inhibition of compound was determined against M14 cell lines of Melanoma
Malme-3M = test: In vitro growth inhibition of compound was determined against MALME-3M cell lines of Melanoma
MCF7 = test: In vitro growth inhibition of compound was determined against MCF-7 cell lines of Breast cancer
NCI-H522 = test: In vitro growth inhibition of compound was determined against NCI-H522 cell lines of non-small cell lung cancer
NCI-H226 = test: In vitro growth inhibition of compound was determined against NCI-H226 cell lines of non-small cell lung cancer
NCI/ADR-RES = test: In vitro growth inhibition of compound was determined against NCI/ADR-RES cell lines of Breast cancer
OVCAR-3 = test: In vitro growth inhibition of compound was determined against OVCAR-3 cell lines of Ovarian cancer
OVCAR-8 = test: In vitro growth inhibition of compound was determined against OVCAR-8 cell lines of Ovarian cancer
OVCAR-4 = test: In vitro growth inhibition of compound was determined against OVCAR-4 cell lines of Ovarian cancer
RXF 393 = test: In vitro growth inhibition of compound was determined against RXF393 cell lines of Renal cancer
RPMI-8226 = test: In vitro growth inhibition of compound was determined against RPMI-8226 cell lines of Leukemia
SF-268 = test: In vitro growth inhibition of compound was determined against SF-268 cell lines of CNS cancer
SW-620 = test: In vitro growth inhibition of compound was determined against SW-620 cell lines of colon cancer
SR = test: In vitro growth inhibition of compound was determined against SR cell lines of Leukemia
SN12C = test: In vitro growth inhibition of compound was determined against SN12C cell lines of Renal cancer
SF-295 = test: In vitro growth inhibition of compound was determined against SF-295 cell lines of CNS cancer
SNB-75 = test: In vitro growth inhibition of compound was determined against SNB-75 cell lines of CNS cancer
SK-MEL-28 = test: In vitro growth inhibition of compound was determined against SK-MEL-28 cell lines of Melanoma
SK-MEL-5 = test: In vitro growth inhibition of compound was determined against SK-MEL-5 cell lines of Melanoma
TK-10 = test: In vitro growth inhibition of compound was determined against TK-10 cell lines of Renal cancer
UACC-257 = test: In vitro growth inhibition of compound was determined against UACC-257 cell lines of Melanoma
UO-31 = test: In vitro growth inhibition of compound was determined against UO-31 cell lines of Renal cancer
U-251 = test: In vitro growth inhibition of compound was determined against U251 cell lines of CNS cancer
ACHN = test: In vitro growth inhibition of compound was determined against ACHN cell lines of Renal cancer
HOP-62 = test: In vitro growth inhibition of compound was determined against HOP-62 cell lines of non-small cell lung cancer
HT-29 = test: In vitro growth inhibition of compound was determined against HT-29 cell lines of colon cancer
SF-539 = test: In vitro growth inhibition of compound was determined against SF-539 cell lines of CNS cancer
PC-3 = test: In vitro growth inhibition of compound was determined against PC-3 cell lines of Prostate cancer

CCN(CC)C(=S)SS(=O)(=O)c1ccc(NC(C)=O)cc1
GI50 (A549): 0.2 µM | GI50 (786-0): 17 µM | GI50 (BT-549): 61 µM | GI50 (COLO 205): 22 µM | GI50 (CCRF-CEM): 20 µM | GI50 (CAKI-1): 16 µM | GI50 (DU-145): 23 µM | GI50 (HCT-15): 28 µM | GI50 (HOP-92): 16 µM | GI50 (HL-60): 24 µM | GI50 (HCT-116): 15 µM | GI50 (HCC 2998): 27 µM | GI50 (Hs-578T): 60 µM | GI50 (IGROV-1): 12 µM | GI50 (K562): 69 µM | GI50 (KM12): 13 µM | GI50 (MOLT-4): 48 µM | GI50 (LOX IMVI): 14 µM | GI50 (MDA-MB-435): 19 µM | GI50 (MDA-MB-231): 20 µM | GI50 (MDA-N): 21 µM | GI50 (M14): 15 µM | GI50 (Malme-3M): 16 µM | GI50 (MCF7): 18 µM | GI50 (NCI-H522): < 0.01 µM | GI50 (NCI-H226): 35 µM | GI50 (NCI/ADR-RES): 27 µM | GI50 (OVCAR-3): 31 µM | GI50 (OVCAR-8): 15 µM | GI50 (OVCAR-4): 22 µM | GI50 (RXF 393): 11 µM | GI50 (RPMI-8226): 18 µM | GI50 (SF-268): 44 µM | GI50 (SW-620): 16 µM | GI50 (SR): 0.01 µM | GI50 (SN12C): 18 µM | GI50 (SF-295): 28 µM | GI50 (SNB-75): 32 µM | GI50 (SK-MEL-28): 15 µM | GI50 (SK-MEL-5): 0.4 µM | GI50 (TK-10): 48 µM | GI50 (UACC-257): 9 µM | GI50 (UO-31): 20 µM | GI50 (U-251): 15 µM | GI50 (ACHN): 27 µM | GI50 (HOP-62): 18 µM

CCN(CC)C(=S)SS(=O)(=O)c1ccc([N+](=O)[O-])cc1
GI50 (A549): 1 µM | GI50 (786-0): 16 µM | GI50 (BT-549): 36 µM | GI50 (COLO 205): 19 µM | GI50 (CAKI-1): 18 µM | GI50 (DU-145): 27 µM | GI50 (HCT-15): 52 µM | GI50 (HOP-92): 4 µM | GI50 (HCT-116): 5 µM | GI50 (HT-29): 22 µM | GI50 (HCC 2998): 94 µM | GI50 (Hs-578T): > 100 µM | GI50 (K562): 19 µM | GI50 (KM12): 11 µM | GI50 (LOX IMVI): 17 µM | GI50 (MDA-MB-435): 23 µM | GI50 (MDA-MB-231): 26 µM | GI50 (MDA-N): 30 µM | GI50 (M14): 15 µM | GI50 (Malme-3M): 14 µM | GI50 (MCF7): 6 µM | GI50 (NCI-H522): 0.02 µM | GI50 (NCI-H226): 83 µM | GI50 (NCI/ADR-RES): 48 µM | GI50 (OVCAR-3): 35 µM | GI50 (OVCAR-8): 20 µM | GI50 (OVCAR-4): 45 µM | GI50 (RXF 393): 16 µM | GI50 (RPMI-8226): 12 µM | GI50 (SF-268): > 100 µM | GI50 (SW-620): 18 µM | GI50 (SF-539): 20 µM | GI50 (SR): 0.1 µM | GI50 (SN12C): 27 µM | GI50 (SF-295): 59 µM | GI50 (SNB-75): 77 µM | GI50 (SK-MEL-28): 19 µM | GI50 (SK-MEL-5): 2 µM | GI50 (TK-10): 43 µM | GI50 (UACC-257): 24 µM | GI50 (UO-31): 21 µM | GI50 (U-251): 14 µM | GI50 (ACHN): 36 µM | GI50 (HOP-62): 32 µM

CCN(CC)C(=S)SS(=O)(=O)c1ccc(N)cc1
GI50 (A549): 7 µM | GI50 (786-0): 3 µM | GI50 (BT-549): > 100 µM | GI50 (COLO 205): > 100 µM | GI50 (CCRF-CEM): > 100 µM | GI50 (CAKI-1): 22 µM | GI50 (DU-145): > 100 µM | GI50 (HCT-15): > 100 µM | GI50 (HOP-92): 5 µM | GI50 (HL-60): > 100 µM | GI50 (HCT-116): > 100 µM | GI50 (HCC 2998): 8 µM | GI50 (Hs-578T): 83 µM | GI50 (IGROV-1): 5 µM | GI50 (K562): 34 µM | GI50 (KM12): 22 µM | GI50 (MOLT-4): 2 µM | GI50 (LOX IMVI): > 100 µM | GI50 (MDA-MB-435): > 100 µM | GI50 (MDA-MB-231): > 100 µM | GI50 (MDA-N): 65 µM | GI50 (M14): 63 µM | GI50 (Malme-3M): 46 µM | GI50 (MCF7): 5 µM | GI50 (NCI-H522): 1 µM | GI50 (NCI-H226): 98 µM | GI50 (NCI/ADR-RES): > 100 µM | GI50 (OVCAR-3): > 100 µM | GI50 (OVCAR-8): > 100 µM | GI50 (OVCAR-4): > 100 µM | GI50 (PC-3): 90 µM | GI50 (RXF 393): 22 µM | GI50 (RPMI-8226): 22 µM | GI50 (SF-268): > 100 µM | GI50 (SW-620): > 100 µM | GI50 (SF-539): 21 µM | GI50 (SR): 3 µM | GI50 (SN12C): > 100 µM | GI50 (SF-295): > 100 µM | GI50 (SNB-75): 48 µM | GI50 (SK-MEL-28): > 100 µM | GI50 (SK-MEL-5): 13 µM | GI50 (TK-10): > 100 µM | GI50 (UACC-257): > 100 µM | GI50 (UO-31): 80 µM | GI50 (U-251): > 100 µM | GI50 (ACHN): 61 µM | GI50 (HOP-62): 33 µM

CCN(CC)C(=S)SS(=O)(=O)c1ccccc1C(=O)O
GI50 (A549): 6.5 µM | GI50 (786-0): > 100 µM | GI50 (COLO 205): > 100 µM | GI50 (CCRF-CEM): 82 µM | GI50 (CAKI-1): > 100 µM | GI50 (DU-145): > 100 µM | GI50 (HCT-15): > 100 µM | GI50 (HOP-92): > 100 µM | GI50 (HL-60): 1.4 µM | GI50 (HT-29): > 100 µM | GI50 (IGROV-1): > 100 µM | GI50 (LOX IMVI): > 100 µM | GI50 (MDA-MB-231): > 100 µM | GI50 (MDA-N): > 100 µM | GI50 (M14): > 100 µM | GI50 (Malme-3M): 91 µM | GI50 (MCF7): > 100 µM | GI50 (NCI-H522): 1.2 µM | GI50 (NCI-H226): > 100 µM | GI50 (OVCAR-3): > 100 µM | GI50 (OVCAR-8): > 100 µM | GI50 (OVCAR-4): > 100 µM | GI50 (PC-3): > 100 µM | GI50 (RXF 393): > 100 µM | GI50 (SF-268): > 100 µM | GI50 (SW-620): > 100 µM | GI50 (SR): 3.6 µM | GI50 (SF-295): > 100 µM | GI50 (SNB-75): > 100 µM | GI50 (SK-MEL-28): > 100 µM | GI50 (SK-MEL-5): 37 µM | GI50 (UACC-257): > 100 µM | GI50 (UO-31): > 100 µM | GI50 (U-251): > 100 µM | GI50 (ACHN): > 100 µM | GI50 (HOP-62): > 100 µM
